Test results as given in US20250144067A1, “PERSONALIZED STARVATION THERAPY FOR CANCER” (Faeth Therapeutics, Inc., priority 2021, published 2025).
Structures can show the parent of a compound that is named as a salt. Where two headings read alike, the source gives them in different places.

How the values were obtained:
[1] = test system: NCI-H292 lung cancer cells; assay: FDA drug screening, complete media vs cholesterol-free media without statin (TABLE 1); assay type: cell-based, human
[2] = test system: NCI-H292 lung cancer cells; assay: FDA drug screening, complete media vs cholesterol-free media with simvastatin (TABLE 2); assay type: cell-based, human
[3] = NCI-H292 cells, cholesterol-free media without statin, FDA drug library screen
[4] = NCI-H292 cells, complete media, FDA drug library screen
[5] = complete vs cholesterol-free media, >0 enhanced anti-cancer activity, about 0 neutral, <0 antagonist
[6] = complete media minus cholesterol-free media + simvastatin, >0 enhanced anti-cancer activity, about 0 neutral, <0 antagonist
[7] = NCI-H292 cells, cholesterol-free media without statin
[8] = NCI-H292 cells, FDA drug library screen, cholesterol-free media with simvastatin 0.04 μM
[9] = NCI-H292 cells, FDA drug library screen, complete media
[10] = complete media vs cholesterol-free media + simvastatin (0.04 μM), […]
[11] = Complete minus Cholesterol-free, greater than 0 enhanced anti-cancer activity, about 0 neutral, below 0 antagonist
[12] = NCI-H292 cells, FDA drug library screen, cholesterol-free media without statin
[13] = complete media vs cholesterol-free media + simvastatin (0.04 μM), >0 enhanced anti-cancer activity, about 0 neutral, <0 antagonist
[14] = NCI-H292 cells, drug in cholesterol-free media with simvastatin 0.04 μM
[15] = NCI-H292 cells, drug in complete media
[16] = Complete minus Cholesterol-free, greater than 0 enhanced anti-cancer activity, about 0 neutral, below 0 antagonists
[17] = NCI-H292 cells in cholesterol-free media without statin
[18] = NCI-H292 cells in complete media
[19] = NCI-H292 cells, cholesterol-free media with simvastatin 0.04 μM, FDA drug library screen (TABLE 2)
[20] = NCI-H292 cells, complete media, FDA drug library screen (TABLE 2)
[21] = complete media minus cholesterol-free media + simvastatin (0.04 μM), >0 enhanced anti-cancer activity, about 0 neutral, <0 antagonist
[22] = Complete minus Cholesterol-free, >0 enhanced anti-cancer activity, about 0 neutral, <0 antagonist
[23] = complete vs cholesterol-free media, greater than 0 enhanced anti-cancer activity, about 0 neutral, below 0 antagonists
[24] = NCI-H292 cells, FDA library drug in cholesterol-free media with simvastatin 0.04 μM
[25] = NCI-H292 cells, FDA library drug in complete media

COc1c(N2CCNC(C)C2)c(F)cc2c(=O)c(C(=O)O)cn(C3CC3)c12 (stereo not shown) [Gatifloxacin]
Cholesterol-free [1, 3]: 1.137
Complete [1, 4]: 1.266
Difference [1, 5]: 0.13
Cholesterol-free media + simvastatin (0.04 μM) ([2]; NCI-H292 cells, cholesterol-free media with simvastatin 0.04 μM, cell growth value in FDA drug screen): 0.9418
Complete Media ([2]; NCI-H292 cells, complete media, cell growth value in FDA drug screen): 1.02
Difference [2, 6]: 0.08

CN1CCN(c2cc3c(nn2)Oc2ccccc2N3C)CC1.Cl.Cl.O [Azaphen (dihydrochloride monohydrate)]
Cholesterol-free [1, 7]: 1.204
Complete ([1]; NCI-H292 cells, complete media): 0.7783
Difference ([1]; complete vs cholesterol-free media, […]): −0.43
Cholesterol-free media + simvastatin (0.04 μM) [2, 8]: 1.02
Complete Media [2, 9]: 0.9251
Difference [2, 10]: −0.09

CC(OC(=O)NCC1(CC(=O)O)CCCCC1)OC(=O)C(C)C (stereo not shown) [Gabapentin enacarbil]
Difference [1, 11]: −0.14
Cholesterol-free [1, 12]: 1.017
Complete [1, 9]: 0.8727
Cholesterol-free media + simvastatin (0.04 μM) [2, 8]: 1.032
Complete Media [2, 9]: 0.9332
Difference [2, 13]: −0.10

Nc1ccc(C(=O)NCC(=O)[O-])cc1.[Na+] [Aminohippurate (sodium)]
Difference ([1]; Complete minus Cholesterol-free, […]): −0.25
Cholesterol-free [1, 7]: 1.249
Complete ([1]; NCI-H292 cells, complete media): 0.9961
Cholesterol-free media + simvastatin (0.04 μM) [2, 14]: 1.368
Complete Media [2, 15]: 1.199
Difference [2, 10]: −0.17

CCOc1nc2cccc(C(=O)OCc3oc(=O)oc3C)c2n1Cc1ccc(-c2ccccc2-c2noc(=O)[nH]2)cc1 [Azilsartan medoxomil]
Difference [1, 16]: −0.49
Cholesterol-free [1, 17]: 1.119
Complete [1, 18]: 0.6328
Cholesterol-free media + simvastatin (0.04 μM) [2, 8]: 1.394
Complete Media [2, 9]: 1.269
Difference [2, 13]: −0.12

CCCCc1nc(C)c(CC(=S)N(C)C)c(=O)n1Cc1ccc(-c2ccccc2-c2nnn[nH]2)cc1 [Fimasartan]
Difference [1, 11]: −0.08
Cholesterol-free [1, 12]: 1.327
Complete [1, 9]: 1.249
Cholesterol-free media + simvastatin (0.04 μM) [2, 19]: 1.27
Complete Media [2, 20]: 1.222
Difference [2, 21]: −0.05

Ribociclib succinate
Difference [1, 22]: −0.23
Cholesterol-free [1, 7]: 0.9857
Complete ([1]; NCI-H292 cells, complete media): 0.7555
Cholesterol-free media + simvastatin (0.04 μM) [2, 19]: 0.606
Complete Media [2, 20]: 0.6094
Difference [2, 21]: 0.00

CC(C)=CCC/C(C)=C/CC/C(C)=C/CCC(=O)OC/C=C(\C)CCC=C(C)C [Gefarnate]
Cholesterol-free [1]: 1.413
Complete [1]: 0.9135
Difference [1]: −0.50
Cholesterol-free media + simvastatin (0.04 μM) [2]: 1.714
Complete Media [2]: 1.906
Difference [2]: 0.19

Nc1cc(Cl)c(N=C2NCCN2)c(Cl)c1 [Apraclonidine (hydrochloride)]
Complete ([1]; NCI-H292 cells, complete media): 1.213
Difference [1, 23]: −0.41
Cholesterol-free media + simvastatin (0.04 μM) [2, 24]: 1.345
Complete Media [2, 25]: 1.018
Difference [2, 13]: −0.33

CN(Cc1cnc2nc(N)nc(N)c2n1)c1ccc(C(=O)N[C@@H](CCC(=O)[O-])C(=O)[O-])cc1.[Na+].[Na+] [Methotrexate (disodium)]
Difference [1, 22]: −0.05
Cholesterol-free [1, 3]: 0.06701
Complete [1, 4]: 0.01682
Cholesterol-free media + simvastatin (0.04 μM) [2, 19]: 0.2727
Complete Media [2, 20]: 0.2318
Difference [2, 21]: −0.04

COc1cc([C@@H]2c3cc4c(cc3[C@@H](O[C@@H]3O[C@@H]5CO[C@@H](C)O[C@H]5[C@H](O)[C@H]3O)[C@H]3COC(=O)[C@H]23)OCO4)cc(OC)c1O [Etoposide]
Difference [1, 22]: −0.29
Cholesterol-free [1, 7]: 0.7069
Complete ([1]; NCI-H292 cells, complete media): 0.4154
Cholesterol-free media + simvastatin (0.04 μM) [2, 14]: 0.718
Complete Media [2, 15]: 0.5014
Difference [2, 13]: −0.22

Tosufloxacin (tosylate hydrate)
Cholesterol-free [1, 7]: 1.21
Complete ([1]; NCI-H292 cells, complete media): 0.8679
Difference [1, 23]: −0.34
Cholesterol-free media + simvastatin (0.04 μM) [2, 8]: 1.004
Complete Media [2, 9]: 0.9272
Difference [2, 13]: −0.08

CS(=O)(=O)Nc1ccc([N+](=O)[O-])cc1Oc1ccccc1 [Nimesulide]
Difference [1, 22]: −0.26
Cholesterol-free [1, 7]: 1.157
Complete ([1]; NCI-H292 cells, complete media): 0.8983
Cholesterol-free media + simvastatin (0.04 μM) [2, 8]: 0.9827
Difference [2, 6]: 0.17

O=C(O)CCC(=O)O [Succinic acid]
Cholesterol-free [1, 3]: 0.9807
Complete [1, 4]: 1.143
Difference [1, 5]: 0.16
Cholesterol-free media + simvastatin (0.04 μM) [2, 19]: 1.729
Complete Media [2, 20]: 1.686
Difference [2, 21]: −0.04

CC(=O)N(CC(O)CO)c1c(I)c(C(=O)NCCO)c(I)c(C(=O)NCC(O)CO)c1I (stereo not shown) [Ioxilan]
Difference [1, 22]: 0.04
Cholesterol-free [1, 3]: 1.015
Complete [1, 4]: 1.05
Cholesterol-free media + simvastatin (0.04 μM) [2, 24]: 1.221
Complete Media [2, 25]: 0.868
Difference [2, 13]: −0.35

COc1cc(Nc2ncc(F)c(Nc3ccc4c(n3)N(COP(=O)(O)O)C(=O)C(C)(C)O4)n2)cc(OC)c1OC [Fostamatinib]
Difference [1, 22]: −0.29
Cholesterol-free [1, 7]: 0.7013
Complete ([1]; NCI-H292 cells, complete media): 0.4125
Cholesterol-free media + simvastatin (0.04 μM) [2, 24]: 1.406
Complete Media [2, 25]: 1.042
Difference [2, 13]: −0.36

C=C1c2cccc(O)c2C(=O)C2=C(O)[C@]3(O)C(=O)C(C(N)=O)=C(O)[C@@H](N(C)C)[C@@H]3[C@@H](O)[C@H]12 [Methacycline (hydrochloride)]
Difference [1, 16]: −0.57
Cholesterol-free [1, 17]: 1.479
Complete [1, 18]: 0.9047
Cholesterol-free media + simvastatin (0.04 μM) [2, 24]: 1.315
Complete Media [2, 25]: 0.995
Difference [2, 13]: −0.32

C[C@]12CC[C@H](O)CC1=CC[C@@H]1[C@@H]2CC[C@]2(C)C(c3cccnc3)=CC[C@@H]12 [Abiraterone]
Cholesterol-free [1, 3]: 1.119
Complete [1, 4]: 1.371
Difference [1, 5]: 0.25
Cholesterol-free media + simvastatin (0.04 μM) [2, 24]: 1.907
Complete Media [2, 25]: 1.473
Difference [2, 13]: −0.43

CCCN1C[C@H](C)[C@@H](O)[C@](C)(O)[C@@H](CC)OC(=O)[C@H](C)[C@@H](O[C@H]2C[C@@](C)(OC)[C@@H](O)[C@H](C)O2)[C@H](C)[C@@H](O[C@@H]2O[C@H](C)C[C@H](N(C)C)[C@H]2O)[C@](C)(O)C[C@H]1C [Gamithromycin]
Cholesterol-free [1, 7]: 1.35
Complete ([1]; NCI-H292 cells, complete media): 0.886
Difference [1, 23]: −0.46
Cholesterol-free media + simvastatin (0.04 μM) [2, 8]: 1.403
Complete Media [2, 9]: 1.765
Difference [2, 6]: 0.36

CNC[C@H](O)c1cccc(O)c1 [Phenylephrine]
Cholesterol-free [1, 7]: 1.197
Complete ([1]; NCI-H292 cells, complete media): 0.817
Difference [1, 23]: −0.38
Cholesterol-free media + simvastatin (0.04 μM) [2, 8]: 1.256
Complete Media [2, 9]: 1.518
Difference [2, 6]: 0.26

CN(C)[C@@H]1C(O)=C(C(N)=O)C(=O)[C@@]2(O)C(O)=C3C(=O)c4c(O)ccc(Cl)c4[C@@](C)(O)[C@H]3C[C@@H]12 [Chlortetracycline (hydrochloride)]
Cholesterol-free [1, 7]: 1.583
Complete ([1]; NCI-H292 cells, complete media): 1.205
Difference [1, 23]: −0.38
Cholesterol-free media + simvastatin (0.04 μM) [2, 24]: 1.491
Complete Media [2, 25]: 1.106
Difference [2, 13]: −0.38

Cc1cccc(C)c1OCC(C)N (stereo not shown) [Mexiletine (hydrochloride)]
Difference [1, 22]: −0.20
Cholesterol-free [1, 7]: 1.086
Complete ([1]; NCI-H292 cells, complete media): 0.8848
Cholesterol-free media + simvastatin (0.04 μM) [2, 8]: 1.005
Complete Media [2, 9]: 0.8858
Difference [2, 13]: −0.12
